Results as given in patent US20070004691A1, “Antitumoral combinations containing et-743 and a cruciferous and a cruciferous indole compound” (priority 2003, published 2007).

Assays:
female Wistar rats = test: Study of hepatotoxicity: protection against ET-743-induced liver damage; format: in vivo, rat
Method: I3C at 0.1 or 0.5% or di-indolyl methane (DIM) at 0.2% were added to the diet of female Wistar rats (230-260 g) seven days prior to treatment with a hepatotoxic dose of ET-743 (40 μg/kg, iv. via the lateral tail vein). This amount constitutes doses equivalent to approximately 80 and 400 mg/kg I3C per day. Control animals received the unaltered diet and/or water as the vehicle for ET-743. The dose of DIM was based on the following consideration: DIM is the product of the condensation of two molecules of I3C, therefore assuming all of the I3C in the 0.5% dose group dimerises to form DIM, the maximal amount of DIM which could theoretically be generated is half of the amount of I3C in the diet. Each treatment group comprised 4 animals. Hepatic changes were studied by assessment of alterations in plasma levels of bilirubin and liver enzymes ALP and aspartate aminotransferase (AST) and by conventional histopathological investigation of liver tissue.

13762 tumor = test: Study of antitumor activity: 13762 tumor fragments implanted sc; format: in vivo, rat; settings: for tumor weight inhibition (TWI): day 20, I3C 0.5% in diet from implantation, ET-743 40 μg/kg i.v. on day 6, female Fischer rats, weight from caliper diameters; for decrease of terminal tumor weight: tumors excised and weighed at termination of the experiment (day 20), I3C 0.5% diet, ET-743 40 μg/kg i.v.
Method: (§1) 13762 tumor fragments (100-200 mg weight) were implanted (sc) into the flank of female Fischer rats (100-120 g). […] Properties of the 13762 tumour have previously been described for example in Braunschweiger P. G., and Schiffer L. M. 1980, J. Natl. Cancer Inst., 64: 671-674: “Growth kinetics of mammary tumor 13762 in rats previously cured by chemotherapy”. Tumor weight (TW) was calculated on each day via tumor diameters, using a Vernier caliper and the formula: TW (in mg)=tumor volume (mm3)=d^2×D/2, in which d and D represent the shortest and longest diameter, respectively. Rats (9-10 per group) received I3C in their diet (0.5%) from the day of tumor implantation to the end of the experiment. ET-743 (40 μg/kg, i.v.) was administered on day 6 post tumor implantation.

[1] = Study of ET-743 levels in liver and plasma (HPLC-ESI-MS/MS); format: in vivo, rat; settings: for AUC of ET-743 in liver (0-24 h after dosing), mean: rat liver; for AUC of ET-743 in plasma (0-24 h after dosing), mean: rat plasma
Method: We tested the hypothesis that I3C pretreatment alters clearance of ET-743 from plasma and liver in vivo. Blood samples and liver tissue were collected from rats before and up to 24 h after administration of ET-743 (40 μg/kg iv.) with or without treatment with I3C (0.5% in the diet) given from 6 days prior to ET-743. Blood samples (by cardiac puncture) and liver tissue were collected before and at 0.5, 1, 3, 6, 12 and 24 h post treatment. Blood was placed in heparinized tubes, and plasma was obtained by centrifugation. An aliquot (0.3 ml) was mixed with 0.7 ml ammonium acetate buffer (0.2 M, pH 5.0). Liver tissue was homogenized (1:1) in water. Levels of ET-743 were measured by HPLC coupled to electrospray ionization tandem mass spectrometry in the plasma and liver samples.

[2] = tested on: human tumour xenografts grown in athymic mice; settings: including melanoma and ovarian and breast carcinoma; cited from earlier work
[3] = tested on: mice, rats, dogs and monkeys; settings: plasma liver-specific enzymes, cholangitis; cited from earlier work
patients = settings: prolonged infusion over 24-72 hr; cited from earlier work
rat livers = test: Hepatoprotection by modulators of drug metabolism against ET-743; settings: compared with dexamethasone
female Fischer rats = test: Protection against pathological manifestations of ET-743 in the liver of tumor-bearing Fischer rats; format: in vivo; settings: 0.5% dietary I3C, compared with Wistar rat
Method: as §1

female rat = settings: high-dose dexamethasone pretreatment; cited from earlier work
[4] = ET-743 alone, 40 μg/kg iv, female Wistar rats
[5] = ET-743 40 μg/kg iv in combination with I3C (0.5% in the diet from 6 days prior)
[6] = I3C 0.1% in diet plus ET-743 40 μg/kg iv

COc1cc2c(cc1O)CCN[C@]21CS[C@@H]2c3c(OC(C)=O)c(C)c4c(c3[C@H](COC1=O)N1C2C2c3c(cc(C)c(OC)c3O)C[C@@H]([C@@H]1O)N2C)OCO4 (stereo partly shown) [ET-743, Ecteinascidin 743]
activities of ALP and AST (female Wistar rats; [4]): elevated
plasma levels of bilirubin (female Wistar rats; [4]): dramatically raised
liver pathology (female Wistar rats; ET-743 alone, 40 μg/kg iv, day 3 and day 9): severe bile duct damage on day 3 and biliary sclerosis on day 9
tumor weight inhibition (TWI) (13762 tumor): 62%
decrease of terminal tumor weight (13762 tumor): 54%
AUC of ET-743 in liver (0-24 h after dosing), mean [1, 5]: 563 ngxh/ml
AUC of ET-743 in plasma (0-24 h after dosing), mean [1, 5]: 1.9 ngxh/ml
AUC of ET-743 in liver (0-24 h after dosing), mean ([1]; ET-743 alone, 40 μg/kg iv): 280 ngxh/ml
AUC of ET-743 in plasma (0-24 h after dosing), mean ([1]; ET-743 alone, 40 μg/kg iv): 4.7 ngxh/ml
antineoplastic activity [2]: potent
side effect in preclinical acute toxicity studies [3]: liver toxicity
side effects in patients (patients): myelotoxic and hepatotoxic

CCC1(c2ccccc2)C(=O)NC(=O)NC1=O [phenobarbitone]
amelioration of ET-743 mediated hepatotoxicity (rat livers): weak

O=c1cc(-c2ccccc2)oc2ccc3ccccc3c12 [β-naphthoflavone]
amelioration of ET-743 mediated hepatotoxicity (rat livers): persisted only for a short term

CC(=O)N[C@@H](CS)C(=O)O [N-acetylcysteine]
amelioration of ET-743 mediated hepatotoxicity (rat livers): failed to protect

OCc1c[nH]c2ccccc12 [I3C, 1H-indole-3-methanol]
plasma bilirubin levels compared to ET-743 alone (female Wistar rats; I3C 0.1% in diet (approx. 80 mg/kg per day) from seven days prior to ET-743 40 μg/kg iv): moderately reduced
AST and ALP activity compared with levels induced by ET-743 alone (female Wistar rats; [6]): did not decrease
pathological manifestations of liver damage compared to ET-743 only (female Wistar rats; [6]): only marginally less severe
protection as reflected by the biochemical indices (female Wistar rats; I3C 0.5% in diet (approx. 400 mg/kg per day) plus ET-743 40 μg/kg iv): complete
protection adjudged on the basis of liver pathology (female Wistar rats; I3C 0.5% in diet plus ET-743 40 μg/kg iv, 3 and 9 days): substantial, albeit not complete
weight of the animals or liver function (biochemical indices or pathology) (female Wistar rats; consumption of I3C on its own in the diet): did not affect
tumor weight inhibition (TWI) (13762 tumor): 35%
decrease of terminal tumor weight (13762 tumor): 43%
protection against the pathological manifestations of ET-743 in the liver (female Fischer rats): same degree of protection

C[C@@H]1C[C@H]2[C@@H]3CCC4=CC(=O)C=C[C@]4(C)[C@@]3(F)[C@@H](O)C[C@]2(C)[C@@]1(O)C(=O)CO [dexamethasone]
hepatic levels of ET-743 after pretreatment (female rat): dramatic reduction
